Test results: patent publication US20080069860A1, “HYPERPHOSPHATEMIA IN DOMESTIC ANIMALS: COMPOSITIONS AND METHODS OF TREATMENT” (priority 2005, published 2008)

Legend:
beagle dogs = assay: Dog study, urine phosphate excretion after oral capsules; type: in vivo; settings: 2250 mg elemental lanthanum twice daily, urine approximately 24 hours after dosing
[1] = test system: Sprague-Dawley rats underwent 5/6th nephrectomy; assay: In vivo study in 5/6th nephrectomy rats, urine phosphorus excretion; settings: 314 mg elemental lanthanum/kg/day oral, once daily for 14 days, compared to untreated rats
Protocol: Groups of six adult Sprague-Dawley rats underwent 5/6th nephrectomy in two stages over a period of 2 weeks and were then allowed to recover for a further two weeks prior to being randomized for treatment. The groups received vehicle (0.5% w/v carboxymethyl cellulose), or lanthanum oxycarbonate suspended in vehicle, once daily for 14 days by […] (10 ml/kg/day). The dose delivered 314 mg elemental lanthanum/kg/day. Dosing was carried out immediately before the dark (feeding) cycle on each day. Urine samples (24 hours) were collected prior to surgery, prior to the commencement of treatment, and twice weekly during the treatment period. Volume and phosphorus concentration were measured.
Feeding—During the acclimatization and surgery period, the animals were given Teklad phosphate sufficient diet (0.5% Ca, 0.3%P; Teklad No. TD85343), ad libitum. At the beginning of the treatment period, animals were pair fed based upon the average food consumption of the vehicle-treated animals the previous week.
5/6 Nephrectomy—After one week of acclimatization, all animals were subjected to 5/6 nephrectomy surgery. The surgery was performed in two stages. First, the two lower branches of the left renal artery were ligated. One week later, a right nephrectomy was performed. […]

dogs = assay: Palatability study in dogs; type: in vivo; settings: 9 dogs, during hours post meal
Source text: Lanthanum oxycarbonate was mixed with wet and dry dog food and presented to 9 different dogs, almost all over 40 pounds.

| Compound | urine phosphate excretion, a marker of phosphorous binding (beagle dogs) | phosphorus excretion (urine), a marker of dietary phosphorus binding [1] | signs of nausea, vomiting, bloating or flatus (dogs) |
| --- | --- | --- | --- |
| O=C([O-])[O-].[La+3].[OH-] [compound A, LaCO3OH] | reduction of urine phosphate excretion | – | – |
| O=C([O-])[O-].[La+3].[La+3].[O-2].[O-2] [compound B, La2O2CO3] | reduction of urine phosphate excretion | – | – |
| O=C([O-])[O-].[La+3].[OH-] [lanthanum carbonate hydroxide] | – | decrease in phosphorus excretion | – |
| lanthanum oxycarbonate | – | decrease in phosphorus excretion | None of the dogs exhibited signs of nausea, vomiting, bloating or flatus |
